According to ChEMBL document CHEMBL1201862, “PubChem BioAssay data set” (2004):
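Cells were grown in 96-well plates and exposed to each compound for 48 hours at five concentrations; endpoints were interpolated linearly between bracketing concentrations, or set to the highest concentration if not reached. GI50: concentration for 50% inhibition of growth.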 Calls of active or inactive are those of the source. Rule as the data show it: active = GI50 up to about 1.1 µM and inactive = higher. Where a SMILES comes first, the peptide text is derived from it. The star is where a group is joined. ONb = O=[N+]([O-])c1ccc(CO*)cc1; Boc = CC(C)(C)OC(=O)*

Assays:
Assay in all cases: growth of human tumour cells (NCI), 48 h
Hs-578T = system: Hs-578T
U-251 = system: U-251
OVCAR-3 = system: OVCAR-3
NCI/ADR-RES = system: NCI/ADR-RES
SW-620 = system: SW-620
COLO 205 = system: COLO 205
KM12 = system: KM12
K562 = system: K562
CCRF-CEM = system: CCRF-CEM
SK-OV-3 = system: SK-OV-3
PC-3 = system: PC-3
UO-31 = system: UO-31
RPMI-8226 = system: RPMI-8226
SN12C = system: SN12C
SK-MEL-2 = system: SK-MEL-2
UACC-62 = system: UACC-62
NCI-H522 = system: NCI-H522
IGROV-1 = system: IGROV-1
HT-29 = system: HT-29

SMILES	GI50 (Hs-578T)	GI50 (U-251)	GI50 (OVCAR-3)	GI50 (NCI/ADR-RES)	GI50 (SW-620)	GI50 (COLO 205)	GI50 (KM12)	GI50 (K562)	GI50 (CCRF-CEM)	GI50 (SK-OV-3)	GI50 (PC-3)	GI50 (UO-31)	GI50 (RPMI-8226)	GI50 (SN12C)	GI50 (SK-MEL-2)	GI50 (UACC-62)	GI50 (NCI-H522)	GI50 (IGROV-1)	GI50 (HT-29)
COc1cccc([C@@H]2CC(=O)c3cc4c(cc3N2)OCO4)c1	64.9 µM (inactive)	> 100 µM (inactive)	> 100 µM (inactive)	> 100 µM (inactive)	> 100 µM (inactive)	> 100 µM (inactive)	> 100 µM (inactive)	98.4 µM (inactive)	> 100 µM (inactive)	> 100 µM (inactive)	> 100 µM (inactive)	> 100 µM (inactive)	76.4 µM (inactive)	> 100 µM (inactive)	> 100 µM (inactive)	65.3 µM (inactive)	–	–	–
Nc1ccc(C(=O)NN2C(=O)[C@H](Cl)C2c2ccc(Cl)cc2)cc1 (stereo partly specified)	–	1.22 µM (inactive)	0.57 µM (active)	1.65 µM (inactive)	2.11 µM (inactive)	1.93 µM (inactive)	1.5 µM (inactive)	1.82 µM (inactive)	–	1.88 µM (inactive)	1.6 µM (inactive)	2.07 µM (inactive)	1.21 µM (inactive)	1.04 µM (active)	1.89 µM (inactive)	1.68 µM (inactive)	2.03 µM (inactive)	1.65 µM (inactive)	0.156 µM (active)
C=C1[C@@H]2CCC3[C@]4(C)C(CC[C@@]5(C)C(=O)O[C@H](O)[C@@H]45)[C@H](O)[C@]3(C2)[C@H]1OC1OC(CO)C(O)C(O)C1O (stereo partly specified)	> 50 µM (inactive)	> 50 µM (inactive)	> 50 µM (inactive)	> 50 µM (inactive)	> 50 µM (inactive)	> 50 µM (inactive)	> 50 µM (inactive)	14.1 µM (inactive)	–	> 50 µM (inactive)	> 50 µM (inactive)	> 50 µM (inactive)	8.81 µM (inactive)	> 50 µM (inactive)	> 50 µM (inactive)	> 50 µM (inactive)	–	> 50 µM (inactive)	> 50 µM (inactive)
CCOC(=O)c1cc2c3c(c(C(C)=O)c(O)c2[nH]1)N(C(C)=O)CC3	51.9 µM (inactive)	> 100 µM (inactive)	34 µM (inactive)	29.9 µM (inactive)	> 100 µM (inactive)	63.2 µM (inactive)	45.4 µM (inactive)	26.9 µM (inactive)	46 µM (inactive)	> 100 µM (inactive)	48.3 µM (inactive)	31.2 µM (inactive)	19.3 µM (inactive)	> 100 µM (inactive)	> 100 µM (inactive)	81.3 µM (inactive)	–	31.8 µM (inactive)	> 100 µM (inactive)
CC1[C@@H](OCc2ccccc2)COC(=O)N1Cc1ccccc1 (stereo partly specified)	> 100 µM (inactive)	> 100 µM (inactive)	> 100 µM (inactive)	49.4 µM (inactive)	> 100 µM (inactive)	> 100 µM (inactive)	> 100 µM (inactive)	60 µM (inactive)	> 100 µM (inactive)	> 100 µM (inactive)	93.8 µM (inactive)	32.7 µM (inactive)	52.2 µM (inactive)	> 100 µM (inactive)	> 100 µM (inactive)	> 100 µM (inactive)	–	> 100 µM (inactive)	> 100 µM (inactive)
CN(Nc1cc(=O)[nH]c(=O)[nH]1)c1ccccc1	52 µM (inactive)	> 100 µM (inactive)	> 100 µM (inactive)	> 100 µM (inactive)	> 100 µM (inactive)	> 100 µM (inactive)	> 100 µM (inactive)	> 100 µM (inactive)	> 100 µM (inactive)	> 100 µM (inactive)	> 100 µM (inactive)	> 100 µM (inactive)	> 100 µM (inactive)	> 100 µM (inactive)	> 100 µM (inactive)	> 100 µM (inactive)	–	> 100 µM (inactive)	> 100 µM (inactive)
CC(=O)OCCCCn1cc(Cn2ccc(=O)n(Cc3cn(CCCCOC(C)=O)nn3)c2=O)nn1	> 100 µM (inactive)	> 100 µM (inactive)	> 100 µM (inactive)	> 100 µM (inactive)	> 100 µM (inactive)	> 100 µM (inactive)	> 100 µM (inactive)	–	> 100 µM (inactive)	> 100 µM (inactive)	> 100 µM (inactive)	> 100 µM (inactive)	> 100 µM (inactive)	> 100 µM (inactive)	> 100 µM (inactive)	> 100 µM (inactive)	–	> 100 µM (inactive)	–
O=C1CCCCC[C@]12SC[C@H]1CON=C12	59 µM (inactive)	12.3 µM (inactive)	89.7 µM (inactive)	25.9 µM (inactive)	50.8 µM (inactive)	29.2 µM (inactive)	60.3 µM (inactive)	42.6 µM (inactive)	21.9 µM (inactive)	37.4 µM (inactive)	–	26.9 µM (inactive)	27.2 µM (inactive)	23.1 µM (inactive)	–	14.5 µM (inactive)	22.6 µM (inactive)	47.5 µM (inactive)	38.3 µM (inactive)
COC(=O)c1cc(-c2ccc(-c3ccc(O)cc3)cc2)cc(-c2ccc(-c3ccc(O)cc3)cc2)c1	–	–	12 µM (inactive)	11.7 µM (inactive)	7.11 µM (inactive)	12.6 µM (inactive)	2.17 µM (inactive)	4.51 µM (inactive)	14.8 µM (inactive)	15.6 µM (inactive)	10.8 µM (inactive)	11.5 µM (inactive)	10.7 µM (inactive)	13.4 µM (inactive)	15.3 µM (inactive)	–	2.62 µM (inactive)	6.44 µM (inactive)	–
COc1ccc(C2SCC(=O)N2NC(=O)c2ccc(NC(C)=O)cc2)cc1 (stereo unspecified)	> 100 µM (inactive)	40.6 µM (inactive)	> 100 µM (inactive)	> 100 µM (inactive)	> 100 µM (inactive)	> 100 µM (inactive)	> 100 µM (inactive)	> 100 µM (inactive)	–	> 100 µM (inactive)	–	> 100 µM (inactive)	> 100 µM (inactive)	> 100 µM (inactive)	> 100 µM (inactive)	> 100 µM (inactive)	–	> 100 µM (inactive)	> 100 µM (inactive)
CSc1ncnc2c1ncn2CCC(=O)O	–	–	> 100 µM (inactive)	> 100 µM (inactive)	> 100 µM (inactive)	> 100 µM (inactive)	> 100 µM (inactive)	> 100 µM (inactive)	> 100 µM (inactive)	> 100 µM (inactive)	> 100 µM (inactive)	> 100 µM (inactive)	> 100 µM (inactive)	> 100 µM (inactive)	–	> 100 µM (inactive)	> 100 µM (inactive)	> 100 µM (inactive)	> 100 µM (inactive)
CSc1nncc2[nH]cnc12	> 100 µM (inactive)	> 100 µM (inactive)	> 100 µM (inactive)	> 100 µM (inactive)	> 100 µM (inactive)	> 100 µM (inactive)	> 100 µM (inactive)	> 100 µM (inactive)	> 100 µM (inactive)	–	> 100 µM (inactive)	> 100 µM (inactive)	> 100 µM (inactive)	> 100 µM (inactive)	> 100 µM (inactive)	> 100 µM (inactive)	–	> 100 µM (inactive)	> 100 µM (inactive)
CC(C)=CCC/C(C)=C/CCC(C(=O)COCc1ccccc1)P1(=O)OC(C)(C)CN1C(C)(C)C (stereo unspecified)	–	> 100 µM (inactive)	37.6 µM (inactive)	31.5 µM (inactive)	> 100 µM (inactive)	42.2 µM (inactive)	36 µM (inactive)	31.9 µM (inactive)	30.6 µM (inactive)	> 100 µM (inactive)	39.3 µM (inactive)	50.4 µM (inactive)	–	> 100 µM (inactive)	35.5 µM (inactive)	> 100 µM (inactive)	32.6 µM (inactive)	91.4 µM (inactive)	33.2 µM (inactive)
O=S(=O)(c1ccccc1)n1c(C(O)c2ccccc2)cc2ccccc21 (stereo unspecified)	10.9 µM (inactive)	16.7 µM (inactive)	16.7 µM (inactive)	13.1 µM (inactive)	24 µM (inactive)	15.9 µM (inactive)	15 µM (inactive)	49.4 µM (inactive)	9.46 µM (inactive)	15 µM (inactive)	15.7 µM (inactive)	11.7 µM (inactive)	> 100 µM (inactive)	–	17.1 µM (inactive)	12.9 µM (inactive)	–	15.5 µM (inactive)	13.4 µM (inactive)
CC(C)(C)C1=NC(=S)SC2=NC(=O)C3(NN21)c1ccccc1-c1ccccc13	–	–	–	5.41 µM (inactive)	> 10 µM (inactive)	> 10 µM (inactive)	> 10 µM (inactive)	5.05 µM (inactive)	8.71 µM (inactive)	> 10 µM (inactive)	7.21 µM (inactive)	6.58 µM (inactive)	5.08 µM (inactive)	> 10 µM (inactive)	–	> 10 µM (inactive)	9.25 µM (inactive)	> 10 µM (inactive)	> 10 µM (inactive)
CC(C)CC(NC(=O)OC(C)(C)C)C(=O)NC(CCC(=O)OCc1ccc([N+](=O)[O-])cc1)C(=O)OCc1ccc([N+](=O)[O-])cc1 (stereo not drawn) (Boc-Leu-Glu(ONb)-ONb; configuration not given here)	–	27.6 µM (inactive)	26.6 µM (inactive)	> 100 µM (inactive)	50.9 µM (inactive)	17.4 µM (inactive)	–	9.44 µM (inactive)	19.8 µM (inactive)	–	27.9 µM (inactive)	82.6 µM (inactive)	22.4 µM (inactive)	> 100 µM (inactive)	22.1 µM (inactive)	28.4 µM (inactive)	4.57 µM (inactive)	24.4 µM (inactive)	21.2 µM (inactive)
